Measured values reported in publication PMC9405123, “Design, Synthesis and Mechanistic Studies of Novel Isatin-Pyrazole Hydrazone Conjugates as Selective and Potent Bacterial MetAP Inhibitors” (Antibiotics, 2022).
Converted amounts (≈) assume the structure as drawn.

Assays:
HK91 = assay: MIC on environmental MDR isolate (microdilution); conditions: Ralstonia
G. mellonella larvae = assay: In vivo toxicological assessment, larval survival; parameters: species or system Galleria mellonella; conditions: 100, 250, 500, 750 and 1000 μg/mL; up to 5 days
Description: The objective of this experiment was to assess the in vivo toxicity of PS9 using larvae of G. mellonella. […] The results obtained using Galleria larvae show a strong correlation to those generated using mammals and larvae have the advantage of producing results within 48 h, being inexpensive to purchase and house, and being free from the legal and ethical restrictions that affect mammalian testing. Larvae can also be used to assess toxicity and there is a strong correlation between the toxicity of compounds in larvae and mammals.
PS9 stock solutions were prepared in DMSO (≤10%) and deionized water and maintained at room temperature.
The greater wax G. mellonella sixth instar larvae were purchased from Live foods Direct Ltd. Sheffield, UK, and kept in the dark at 15 °C to suspend pupation. Healthy larvae with no appearance of melanization and weighing 150–250 mg were selected and stored in sterile nine cm Petri dishes containing wood shavings.

EfMetAP1a = EfMetAP1a (Enterococcus faecalis, UniProt Q832M5); assay: MetAP enzyme inhibition, Morrison Ki (Met-AMC fluorescence); assay type: biochemical; conditions: Morrison Ki method
LG1 = assay: MBC on environmental MDR isolate
E. faecalis = assay: Time-kill curve assay; assay type: cell-based, Enterococcus faecalis
Description: A time–kill curve study was performed against bacterial strains (E. coli, E. faecalis, K. pneumonia and P. aeruginosa) to determine whether compound PS9 is bactericidal or bacteriostatic. MIC, 2MIC and 4MIC concentrations were employed for the time–kill assay as explained by Ali et al.. Untreated bacterial cells were used as a control. 100 µL aliquot was taken from each flask at regular intervals. An aliquot was further diluted in phosphate buffer saline solution and from each concentration 50 µL aliquot was inoculated on a nutrient agar plate and spread. Colonies were counted after the incubation of the plate at 37 °C. For each strain, the average (mean) colony count data (log10 CFU/mL) was plotted against time.

EfMetAP1a, sequence (Q832M5 entry or part of it): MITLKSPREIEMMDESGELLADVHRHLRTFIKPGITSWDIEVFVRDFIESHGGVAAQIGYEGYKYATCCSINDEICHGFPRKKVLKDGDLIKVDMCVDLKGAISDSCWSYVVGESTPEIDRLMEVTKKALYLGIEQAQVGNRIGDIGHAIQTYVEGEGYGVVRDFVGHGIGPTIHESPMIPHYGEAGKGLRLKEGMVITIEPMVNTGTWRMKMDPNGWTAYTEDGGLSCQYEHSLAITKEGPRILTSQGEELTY

With `O=C1Nc2ccc(F)cc2/C1=N\NC(=O)c1cc(-c2cccc(Br)c2)n[nH]1` [PS9, (E)-3-(3-Bromophenyl)-N′-(5-Fluoro-2-Oxoindolin-3-Ylidene)-1H-Pyrazole-5-Carbohydrazide] the MIC (HK91) was 2 µg/mL (≈ 4.67 µM), the larval survival (G. mellonella larvae) was 100% and the Ki (EfMetAP1a) was 6.93 ± 0.45 µM. For the same compound, the MBC (LG1) was 128 µg/mL (≈ 299 µM), the “killing (log10 CFU/mL with time)” value (E. faecalis; 4MIC, after 16 h) was “significant eradication” and the “killing (log10 CFU/mL with time)” value (E. faecalis; MIC, till 16 h) was “no 100% eradication”.
